Results: the supplement of paper PMC10883282
± gives the standard deviation of the averaged measurements.

Test system: SW684
Assay: relative viability vs DMSO control (72 h) (fraction); higher = more viable cells
In short: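 Relative viability is percent growth read by ATPLite and averaged over up to triplicate wells. Sarcoma cells were seeded in 384-well plates to reach 80–90% confluence and given 2.5 µl of serially diluted compound after 24 h, from source plates of 10 mM to 0.0002 mM. Incubation lasted 72 h at 37 °C, 5% CO2, with 0.1% DMSO vehicle and a 5 µM positive control, and the data were rescaled so 1 equals full and 0 equals none.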

Compound | relative viability (0.00017 µM) | relative viability (0.00051 µM) | relative viability (0.00152 µM) | relative viability (0.00457 µM) | relative viability (0.01372 µM) | relative viability (0.04115 µM) | relative viability (0.1235 µM) | relative viability (0.3704 µM) | relative viability (1.111 µM) | relative viability (3.333 µM) | relative viability (10 µM)
C[C@@H](c1ccc2nccn2c1)n1nnc2ncc(-c3cnn(C)c3)nc21 [Volitinib] | 1.17 ± 0.067 | 1.17 ± 0.028 | 1.17 ± 0.022 | 1.14 ± 0.083 | 1.18 ± 0.048 | 1.17 ± 0.034 | 1.16 ± 0.064 | 1.15 ± 0.032 | 1.13 ± 0.019 | 1.13 ± 0.018 | 0.968 ± 0.092
CC(C)(C)c1cc(NC(=O)Nc2ccc(-c3cn4c(n3)sc3cc(OCCN5CCOCC5)ccc34)cc2)no1 [Quizartinib] | 1.11 ± 0.14 | 1.209 ± 0.012 | 1.21 ± 0.095 | 1.23 ± 0.019 | 1.2 ± 0.052 | 1.14 ± 0.012 | 1.21 ± 0.03 | 1.23 ± 0.061 | 1.14 ± 0.078 | 1.03 ± 0.038 | 0.734 ± 0.077
CC(C)N1CCN(Cc2cnc(-c3cc(-c4cccc5[nH]ccc45)cc4[nH]ncc34)o2)CC1 [Nemiralisib] | 1 ± 0.084 | 0.911 ± 0.069 | 0.851 ± 0.033 | 0.804 ± 0.014 | 0.721 ± 0.019 | 0.68 ± 0.051 | 0.695 ± 0.011 | 0.618 ± 0.03 | 0.541 ± 0.035 | 0.548 ± 0.027 | 0.444 ± 0.043
C=CC(=O)N1CCC[C@@H](n2nc(-c3ccc(Oc4ccccc4)cc3)c3c(N)ncnc32)C1 [Ibrutinib] | 1.18 ± 0.037 | 1.22 ± 0.063 | 1.2 ± 0.016 | 1.22 ± 0.026 | 1.17 ± 0.054 | 1.24 ± 0.054 | 1.15 ± 0.12 | 1.24 ± 0.061 | 1.26 ± 0.078 | 1.3 ± 0.071 | 1.06 ± 0.031
CN1CCC(COc2cnc(-c3cccc(Cn4nc(-c5cccc(C#N)c5)ccc4=O)c3)nc2)CC1 [Tepotinib] | 1.11 ± 0.034 | 1.21 ± 0.032 | 1.14 ± 0.055 | 1.16 ± 0.039 | 1.16 ± 0.043 | 1.15 ± 0.065 | 1.18 ± 0.067 | 1.16 ± 0.096 | 1.14 ± 0.08 | 1.1 ± 0.044 | 0.865 ± 0.047
C[C@@H]1CCN(C(=O)CC#N)C[C@@H]1N(C)c1ncnc2[nH]ccc12 [Tofacitinib] | 1.2 ± 0.035 | 1.24 ± 0.023 | 1.2 ± 0.004 | 1.23 ± 0.028 | 1.215 ± 0.012 | 1.192 ± 0.0029 | 1.19 ± 0.018 | 1.22 ± 0.031 | 1.11 ± 0.021 | 1.1 ± 0.015 | 0.943 ± 0.029
Cc1cc(Nc2ncnc3ccc(NC4=NC(C)(C)CO4)cc23)ccc1Oc1ccn2ncnc2c1 [Tucatinib] | 1.17 ± 0.019 | 1.2 ± 0.024 | 1.2 ± 0.024 | 1.18 ± 0.03 | 1.21 ± 0.068 | 1.21 ± 0.068 | 1.22 ± 0.09 | 1.19 ± 0.098 | 1.14 ± 0.016 | 1.13 ± 0.074 | 1.08 ± 0.0088
O=C(Nc1cnn2ccc(N3CCC[C@@H]3c3cc(F)ccc3F)nc12)N1CC[C@H](O)C1 [Larotrectinib] | 1.13 ± 0.057 | 1.19 ± 0.071 | 1.19 ± 0.044 | 1.16 ± 0.025 | 1.2 ± 0.073 | 1.15 ± 0.05 | 1.14 ± 0.043 | 1.17 ± 0.084 | 1.16 ± 0.021 | 1.09 ± 0.069 | 1.1 ± 0.04
C=CC(=O)N1CCC([C@@H]2CCNc3c(C(N)=O)c(-c4ccc(Oc5ccccc5)cc4)nn32)CC1 [Zanubrutinib] | 0.998 ± 0.075 | 1.03 ± 0.08 | 1 ± 0.07 | 0.998 ± 0.054 | 1 ± 0.069 | 1.01 ± 0.028 | 1.01 ± 0.047 | 0.978 ± 0.074 | 0.985 ± 0.048 | 0.925 ± 0.038 | 0.89 ± 0.042
CO[C@H]1C[C@@H]2CC[C@@H](C)[C@@](O)(O2)C(=O)C(=O)N2CCCC[C@H]2C(=O)O[C@H]([C@H](C)C[C@@H]2CC[C@@H](OP(C)(C)=O)[C@H](OC)C2)CC(=O)[C@H](C)/C=C(\C)[C@@H](O)[C@@H](OC)C(=O)[C@H](C)C[C@H](C)/C=C/C=C/C=C/1C [Ridaforolimus] | 1.14 ± 0.081 | 1.11 ± 0.065 | 1.07 ± 0.021 | 0.971 ± 0.07 | 0.896 ± 0.043 | 0.862 ± 0.026 | 0.839 ± 0.033 | 0.846 ± 0.049 | 0.833 ± 0.025 | 0.791 ± 0.045 | 0.749 ± 0.068
